Source: US10626364B2, “Method for increasing the glutathione level in cells” (Merck Patent GmbH, priority 2015, dated 2020)

How the values were obtained:
Assay type in all cases: cell-based
[1] = system: CHO cells; experiment: Intracellular total glutathione (GSH and GSSG) during fed-batch, UPLC; settings: equivalent amounts of cysteine or S-sulfocysteine, compared to cells with cysteine
Method: Intracellular Total Glutathione in CHO Cells During a Fed-Batch Using S-Sulfocysteine Vs the Control Process
To quantify intracellular total glutathione, cells were washed three times in cold PBS and frozen at −20° C. for further analysis. To inhibit the activity of potential Cys-converting enzymes, 12×10^6 cells were lysed in 100 μl of phosphoSafe reagent (Merck Millipore) containing four phosphatase inhibitors: sodium fluoride, sodium vanadate, β-glycerophosphate and sodium pyrophosphate and supplemented with 20 mM iodoacetamide (alkylation of all enzyme containing one cysteine in the active site). The glutathione concentrations (GSH and GSSG) were determined via UPLC using a pre-column derivatization relying on AccQ Tag Ultra® reagent kit. Derivatization, chromatography and data analysis were carried out following the supplier recommendations (Waters, Milford, Mass.). Total glutathione was obtained by addition of GSH and GSSG and normalized to the concentration obtained in the control condition each day of the FB process.

[2] = system: CHO cells; experiment: Intracellular reactive species in fed-batch, Carboxy-H2DCFDA staining; settings: 15 mM SSC condition vs control condition, FIG. 2
Method: Intracellular Reactive Species in CHO Cells in a Fed-Batch Using S-Sulfocysteine Vs the Control Process
Intracellular reactive species were quantified using 6-carboxy-2′,7′-dichlorodihydrofluorescein diacetate staining (Carboxy H2DCFDA, Life Technologies). The increase in fluorescence due to oxidative reactions was determined using a Perkin Elmer fluorescence reader. For these experiments, measurements were done during fed batch experiments comparing the control condition and 15 mM SSC condition. Samples were taken every day and analyzed immediately. Briefly, 3×10^5 cells were centrifuged (1200 rpm, 5 min) and either resuspended in PBS (negative control) or loaded with 50 μM Carboxy-H2DCFDA and incubated for 20 min at 37° C. and 1000 rpm. Cells were then centrifuged, resuspended in PBS and analyzed using the plate reader (n=3 for both conditions).

[3] = system: CHO suspension cell line; experiment: Bioreactor fed-batch experiment, IgG concentration in the supernatant (Cedex BioHT, turbidometric method); settings: 15 mM SS in neutral pH main Feed-220, compared to standard (150 mM L-cysteine in separate alkaline feed); FIG. 1
Method: Bioreactor Fed-Batch Experiment in Cellvento® CHO 220 Medium and Feed 220 Using a CHO Suspension Cell Line in 1.2 L Glass Bioreactors.
15 mM S-sulfo-L-cysteine (SS) was integrated in the neutral pH main Feed-220 (n=5). Feed was added at 3% (v/v) at day 3 and 6% (v/v) at days 5, 7, 9 and 14. In the control condition, the feed without SS was added at the same ratios whereas 150 mM L-cysteine was added separately in an alkaline feed and added at following ratios 0.3% (v/v) at day 3 and 6% (v/v) at days 5, 7, 9, 14 (n=2). pH was controlled at 6.95+/−0.15. Dissolved oxygen concentration was controlled at 50% air saturation by sparging with pure oxygen and air via an open pipe sparger. Temperature was set at 37° C. and shifted from 37° C. to 33° C. on day 5 of culture. Agitation was maintained at 140 rpm. The IgG concentration in the supernatant was measured using the Cedex BioHT with a turbidometric method. It can be seen that the titer (IgG concentration) is higher with SS compared to standard.

N[C@H](CSS(=O)(=O)O)C(=O)O [S-sulfocysteine, (S)-2-amino-3-sulfosulfanylpropanoic acid]
amount of GSH in cells [1]: higher amount of GSH
fluorescence intensity (intracellular reactive species) [2]: lower fluorescence intensity
titer (IgG concentration) [3]: higher
